The results in this text go back to patent US4818759A, “Treatment of disease” (priority 1987, dated 1989).

Read-outs that look alike come from different tables or passages of the source.

The test system of this assay is polyarthritis. Put plainly: Rat adjuvant arthritis (Freund's adjuvant polyarthritis), global arthritic joint score. The assay is classed as in vivo, rats. Particulars: po, 384 h, read-out: ED50 (dose that produced a 50% reduction of the average global arthritic joint score relative to a control group).

On to `COc1ccc(OC)c(Cc2cnc3nc(N)nc(N)c3c2C)c1` [2,4-diamino-5-methyl-6-(2,5-dimethoxybenzyl)pyrido[2,3-d]pyrimidine isethionate], for which the ED50 (rats, in ground meal diet for 14 days from day of sensitization with Freund's adjuvant, evaluated on 16th day after sensitization) turned out to be 19 mg/kg.
Turning to `CC(=O)Oc1ccccc1C(=O)O` [Aspirin], the ED50 came out at 102 mg/kg.
